Reference: patent US6605305B2, “Plant drug for treatment of liver disease” (priority 2001, dated 2003)

How the values were obtained:
[1] = tested on: Gastric cancer cells; test: Effect of SCS on p^53 mutations of cancer cells (PCR-SSCP); assay type: cell-based; conditions: Gastric cancer cells treated by SCS
[2] = tested on: c-myb RNA; test: Inhibition of oncogene expression in ML-1 cells (northern blot), c-myb; assay type: cell-based, Human
Procedure: (§1) Human myeloblastic leukemic cells (ML-1) were maintained in suspension culture in RPMI 1640 medium supplemented with 7.5% heat-inactivated FBS. Cells growth and viability were assayed by hemocytometer using trypan-blue dye exclusion.
(§2) RNA was isolated by the CsCl gradient modification. RNA pellets were washed twice by reprecipitation in ethanol and quantitated by absorbency at […]. RNA analyzed by electrophoresis of 15 μg of RNA through 1.2% agarose formaldehyde gels followed by northern blot transfer to nitrocellulose.
(§3) Single-standard uniformly labeled DNA probes were prepared. Probe of c-myc was a 1.7 Kb cla-Eco RI restriction fragment containing the 3′exon region of human c-myc and probe of c-myb was 1.0 Kb myb-specific Bam HI fragment. Probes for n-ras contained DNA fragments using a modification of the PCR technique. Probes for myb, myc and n-ras were isolated. The isolated fragments were labeled to high specific activity with [α^32P]-dCTP (3000 ci/mmol).
(§4) Prehybridization of the filter was performed. The hybridization mixer contained 50,000 cpm of probe. The probes were hybridized at 58° C. in 15 mM NaCl, […] sodium citrate for 3 hours. After hybridization, they were exposed to XAR-5 film. Oncogene expression was quantitated by densitometer scanning of the autoradiography.

[3] = tested on: c-myc RNA; test: Inhibition of oncogene expression in ML-1 cells (northern blot), c-myc; assay type: cell-based, Human
Procedure: as §1, §2, §3, §4

[4] = tested on: DNA synthesis of liver; test: Liver DNA synthesis ([^3H] thymidine incorporation) in CCl4-intoxicated mice; assay type: in vivo; conditions: SCS 50 mg/kg intragastrically daily for 4 days
Procedure: (§5) Female Balb/c mice (22-24 g) were maintained at 20° C. and a 12 hours light/dark cycle. The food and water allowed adliboti. Mice were randomly assigned to groups of 20 individuals. Twenty-four hours after the last dosing, animals were administered an oral dose of CCl4 (1%, v/v, in olive oil) at 1.0 mmol/kg. In treatment group, mice were treated intragastrically with SCS at daily dose of 50 mg/kg for 4 days. Control animals were given the vehicle (i.e. olive oil, 1 mL/kg). Twenty-four hours after intoxication, heparinized blood samples were drawn from ether-anesthetized mice by cardiac puncture, and the animals were killed by cardiac excision thereafter.
[^3H] thymidine (10 μCi/100 g body weight) was injected intraperitoneally and mice were killed 2 hours after the infection. Mice were killed at 12, 24, 36, 48, 72 and 120 hours and their livers were removed.
DNA synthesis was determined by the incorporation of [^3H] thymidice into the acid-insoluble fraction. The liver was homogenized in 4 volumes of distilled water. Two ml of homogenate were added to an equal volume of 10% trichloroacetic acid (TCA) solution and centrifuged at 900 g for 10 minutes. The resultant pellet was washed with 5% TCA twice and suspended again in 2 ml of 5% TCA solution. The suspension was incubated at 90° C. for 20 minutes and centrifuged at 900 g for 10 minutes. One ml of the supernatant was put into a scintillation vial and 10 ml of a toluene-based scintillation fluid containing DPO (0.4%), POPOP (0.01%), and Triton X-100 (30%) as added. The radioactivity was counted in a Packard Tri-Carb Liquid scintillation counter. The DNA content of the supernatant was assayed by the method of using calf thymus DNA as the standard.

[5] = tested on: Serum alamine aminotransferase (ALT); test: Serum ALT activity in CCl4-intoxicated mice; assay type: in vivo
Procedure: as §5
Animal section described as previously. Plasma was obtained by centrifugation. The whole blood at 2000×g at 4° C. Serum alamine aminotransferase (ALT) activity was determined by assay kit from Sigma Chemical Co.

[6] = tested on: Glutathione S-trasferase (GST); test: Liver GST activity in CCl4-intoxicated mice; assay type: in vivo
Procedure: as §5
(§6) The rats were starved overnight before decapitation. The livers were perfused in situ with ice-cold 1.15% KCl solution. Tissue homogenate was prepared by homogenizing 1 g of hepatic tissue sample in 10 mL ice-cold homogenizing buffer with two 10-secbursts of atissue disintegrator at 135,000 rpm. Hepatic mitochondrial fraction was prepared by differential centrifugation in isotonic buffer ([…], 0.1 mM EDTA, 5 mM Tris, pH 7.4).
Glutathione S-trasferase (GST) was determined. Total GST activity in the 105000 g supernatants of the liver homogenate was measured in 100 mM postassium-phosphate buffer (pH 6.5) containing 1 mM glutathione and 1 mM 1-chloro-2, 4-dinitrobenzene.

[7] = tested on: Glutathione (GSH); test: Hepatic mitochondrial GSH level in CCl4-treated mice; assay type: in vivo; conditions: CCl4 + SCS
Procedure: as §5, §6
(§7) The experiments of animal and livers were performed as previously described. Glutathione (GSH) level was determined by an HPLC method. In the present study, the effect of SCS on GHS and GRD were examined.

[8] = tested on: GRD; test: Hepatic GRD activity in CCl4-treated mice; assay type: in vivo
Procedure: as §5, §6, §7

[9] = tested on: Lipoperoxides; test: Liver lipoperoxides (MDA) after CCl4; assay type: in vivo, mice
Procedure: as §5, with “Twenty-four hours after intoxication, heparinized blood samples were drawn from ether-anesthetized mice by cardiac puncture, and the animals were killed by cardiac excision thereafter.” left out
The experiments were performed as previously described.
In the present study, the effect of SCS on lipoperoxides was examined.

[10] = tested on: NADPH-cytochrome Creductase; test: Hepatic microsomal monooxygenases: NADPH-cytochrome C reductase; assay type: in vivo; conditions: rat liver microsomes, treatment group
[11] = tested on: Aminopyrine demethylase; test: Hepatic microsomal monooxygenases: aminopyrine demethylase; assay type: in vivo; conditions: rat liver microsomes, treatment group
[12] = tested on: Benzpyrene hydroxylase; test: Hepatic microsomal monooxygenases: benzpyrene hydroxylase; assay type: in vivo; conditions: rat liver microsomes, treatment group
[13] = tested on: mitochondrion oxygen consumption; test: Mitochondrion oxygen consumption (respiratory control ratio) with TET; assay type: biochemical; conditions: TET 5 μl/L + SCS (100 μmol/L)
Procedure: In present study, the effect of SCS on ATP and oxygen consumption was examined. The experiments of animal and livers were performed as previously described.

COc1cc2c(c(OC)c1OC)-c1c(cc(OC)c(OC)c1OC)C[C@](C)(O)[C@@H](C)C2 [SCS, Schisandrin]
Frequency of p^53 mutations (%) [1]: 10%
Inhibition (%) c-myb RNA ([2]; SCS concentration 10 ng/ml): 65.0 ± 5.7%
Inhibition (%) c-myb RNA ([2]; SCS concentration 50 ng/ml): 67.7 ± 6.8%
Inhibition (%) c-myc RNA ([3]; SCS concentration 10 ng/ml): 70.5 ± 8.5%
Inhibition (%) c-myc RNA ([3]; SCS concentration 50 ng/ml): 70.8 ± 8.9%
DNA synthesis (cpm/mg DNA) ([4]; 12 h): 6520 ± 678 cpm/mg DNA
DNA synthesis (cpm/mg DNA) ([4]; 24 h): 12305 ± 1405 cpm/mg DNA
DNA synthesis (cpm/mg DNA) ([4]; 48 h): 8910 ± 920 cpm/mg DNA
DNA synthesis (cpm/mg DNA) ([4]; 72 h): 9300 ± 940 cpm/mg DNA
ALT (X ± S) ([5]; CCl4 + SCS, serum, mice, SCS 50 mg/kg intragastrically daily for 4 days): 68.8 ± 7.0 U L^−1
CCl4 toxicity decreased by SCS (ALT) ([5]; CCl4 mice, versus control): 87.9%
GST activity ([6]; CCl4 + SCS, liver homogenate supernatant): 2.60 ± 0.28 μmol/mg protein
Inhibition of GST activity ([6]; versus CCl4 control): 55.5%
GSH [7]: 21.8 ± 2.0 nmol/mg protein
GRD ([8]; CCl4 + SCS): 50.6 ± 6.0 mU/mg protein
GRD activity T/C ([8]; treatment versus CCl4 control): 347%
GRD activity T/N ([8]; treatment versus normal group): 145%
Lipoperoxides (mmol MDA/g liver protein) ([9]; 1 h): 0.70 ± 0.07 mmol MDA/g liver protein
Lipoperoxides T/C ([9]; 1 h): 87%
Lipoperoxides (mmol MDA/g liver protein) ([9]; 3 h): 0.65 ± 0.069 mmol MDA/g liver protein
Lipoperoxides T/C ([9]; 3 h): 72%
Lipoperoxides (mmol MDA/g liver protein) ([9]; 6 h): 0.60 ± 0.70 mmol MDA/g liver protein
Lipoperoxides T/C ([9]; 6 h): 55%
Lipoperoxides (mmol MDA/g liver protein) ([9]; 12 h): 0.52 ± 0.60 mmol MDA/g liver protein
Lipoperoxides T/C ([9]; 12 h): 40%
Lipoperoxides (mmol MDA/g liver protein) ([9]; 24 h): 0.50 ± 0.58 mmol MDA/g liver protein
Lipoperoxides T/C ([9]; 24 h): 22%
NADPH-cytochrome Creductase [10]: 202.5 ± 22 nmol/mg protein
Aminopyrine demethylase [11]: 180.0 ± 20 nmol HCHO/mg protein
Benzpyrene hydroxylase [12]: 51.8 ± 6.5 nmol/mg protein
RCR (respiratory control ratio) [13]: 12.5 ± 1.10
